Laboratory results from patent US20190256827A1, “EPIGENOME EDITING SYSTEMS AND METHODS” (STC.UNM, priority 2017, published 2019).

Test system: IL1RN locus in HEK293T cells
Assay: ChIP-qPCR of FLAG-ABI-P300 and H3K27Ac at the IL1RN locus (dCas9-PYL-HA, FLAG-ABI-P300, IL1RN sgRNAs)
Type: cell-based, human
Description: To examine the recruitment of FLAG-ABI-P300, HEK293T cells were co-transfected with IL1RN sgRNAs, dCas9-PYL-HA and FLAG-ABI-P300 plasmids for 24 hours. Cells were then either treated or not treated with 100 μM ABA for another 24 hours before being harvested. Portions of the cell lysates were analyzed by using ChIP (with anti-FLAG antibody) and qPCR assays to quantify the level of FLAG-ABI-P300. […] To determine if the level of H3K27Ac changes in response to the FLAG-ABI-P300 localization, portions of the cell lysates produced in the above experiment were subjected to ChIP (using anti-H3K27Ac antibody) and qPCR assays to quantify the H3K27Ac enrichment.
Human embryonic kidney cell HEK293T (American Type Culture Collection, Manassas, Va.) was cultured in Dulbecco's modified Eagle's medium (DMEM) (Gibco) with 10% FBS (Atlanta Biologicals), 1× GlutaMax (Gibco, Thermo Fisher Scientific, Inc., Waltham, Mass.), and 1× penicillin/streptomycin (Pen/Strep; Gibco, Thermo Fisher Scientific, Inc., Waltham, Mass.). Cells (100,000/ml) were plated in 24-well or 10-cm cell culture plate the day before transfection. For each well of 24-well plate transfection, 500 ng of dCas9-PYL-HA, 420 ng of FLAG-ABI-P300, and a total amount of 200-ng mix of gRNAs, with a 50-ng per each gRNA, were mixed with 50×(v/w) Opti-MEM (Gibco, Thermo Fisher Scientific, Inc., Waltham, Mass.), then incubate with the same volume of 3 μg PEI-Opti-MEM solution for 20 minutes at room temperature. Then, 100 μL of PEI-combined plasmids were added to every single well of 24-well plate and cultured for 24 hours before experiments were performed. For a 10 cm plate, 1 mL of PEI-combined plasmids were needed. After six hours transfection, cells were washed and incubated for another 1-72 hours before experiments were performed.
ChIP protocol was optimized from the method in Molecular Cloning, Fourth edition (Cold Spring Harbor Laboratory Press, 2012). In brief, cells cultured in a 10-cm plate were fixed with 1 mL of cross-linking buffer (0.1 M NaCl, 1 mM EDTA, 0.5 mM EGTA, 50 mM HEPES and 11% formaldehyde), and shaken in room temperature for 15 minutes. Then 1.1 mL of 1.25 M glycine was added to the solution to stop crosslinking. After washing three times in ice cold PBS, cells were scraped and suspended in 10 mL of lysis buffer (50 mM HEPES, 140 mM NaCl, 1 mM EDTA, 10% Glycerol, 0.5% NP40, 0.25% Triton X-100), and rocked at 4° C. for 10 minutes. Cells were centrifuged at 1,000×g for 10 minutes and were resuspended in protein extraction buffer (200 mM NaCl, 1 mM EDTA, 0.5 mM EGTA, 10 mM Tris). Nuclei were pelleted by centrifuging at 1,000×g for 15 minutes at 4° C., resuspended in 2 mL of chromatin extraction buffer (1 mM EDTA, 0.5 mM EGTA, 10 mM Tris), and divided into six sonication tubes. Then, the samples were sonicated for 24 cycles at a 30 seconds on/30 seconds off protocol. Then samples were moved to a new centrifuge tube and insoluble debris were removed by centrifuge at 2,000×g for 20 minutes at 4° C. 10% volume of samples were stored at −80° C. as 10% input control. […] Then, sample-bound beads were washed eight times with RIPA buffer (50 mM HEPES, 1 mM EDTA, 1% NP40, 0.7% DOC, 0.5 M LiCl, 1× protease inhibitor complete cocktail), and finally re-suspended in TE (pH 8.0) buffer to wash. Then TE buffer was removed completely, 50 μL of elution buffer (10 mM Tris, 1 mM EDTA, 1% SDS) was added and the samples were incubated for 10 minutes at 65° C. and rocked every two minutes. The liquid was collected, 120 μL of elution buffer was added, and the samples were incubated at 65° C. overnight. Samples of 10% input were incubated with […] elution buffer at 65° C. overnight, too. To remove histones, washing buffer (140 μL of TE buffer, 3 μL of 20 mg/ml glycogen and 7 μL of 10 mg/ml Proteinase K) was added and incubated two hours at 37° C. Then ChIP samples were purified with phenol:chloroform:isoamyl alcohol (25:24:1) twice, then purified aqueous in chloroform. […]

[1] = IL1RN locus, time course after ABA addition

CC1=CC(=O)CC(C)(C)[C@@]1(O)/C=C/C(C)=C\C(=O)O [ABA, abscisic acid]
FLAG-ABI-P300 level at the IL1RN locus (100 μM ABA for 24 hours vs not treated, anti-FLAG ChIP): increase in FLAG-ABI-P300 level
H3K27Ac levels at the IL1RN locus (24 h after ABA addition (100 μM) vs not treated, anti-H3K27Ac ChIP): H3K27Ac levels increase
stability of H3K27Ac at the IL1RN locus after ABA removal (ABA for 12, 24 or 48 hours, then washed): the longer cells were treated with ABA, the slower H3K27Ac was removed after washing
FLAG-ABI-P300 level at the IL1RN locus after washing to remove ABA (ABA for 12, 24 or 48 hours, then washed with non-ABA media): rapidly decreases to a near background level within one hour following washing
time at which the level of H3K27Ac begins to rise [1]: one hour after ABA addition
time until which H3K27Ac continues to increase [1]: 48 h
time at which FLAG-ABI-P300 reaches a maximal level at the IL1RN locus (time course after ABA addition): 12 h
time of FLAG-ABI-P300 recruitment to the IL1RN locus after ABA addition (time course after ABA addition): Within one hour
